In ChEMBL document CHEMBL3399986, “Rapid 'one-pot' synthesis of a novel benzimidazole-5-carboxylate and its hydrazone derivatives as potential anti-inflammatory and antimicrobial agents” (Bioorg Med Chem Lett, 2015):
≈ marks a conversion by molar mass, not a printed value.

Experiments:
Format in all cases: functional
Penicillium chrysogenum [1] = assay: Antifungal activity against Penicillium notatum after 48 hrs by broth dilution method
Bacillus subtilis [2] = assay: Antimicrobial activity against Bacillus subtilis MTCC 441 after 24 hrs by broth dilution method; details: MTCC 441, 24 h
Candida tropicalis [3] = assay: Antifungal activity against Candida tropicalis MTCC 183 after 48 hrs by broth dilution method; details: MTCC 183, 48 h
Klebsiella pneumoniae [4] = assay: Antimicrobial activity against Klebsiella pneumoniae MTCC 3384 after 24 hrs by broth dilution method; details: MTCC 3384, 24 h
Candida albicans [5] = assay: Antifungal activity against Candida albicans MTCC 461 after 48 hrs by broth dilution method; details: MTCC 461, 48 h
Bacillus subtilis [6] = assay: Antimicrobial activity against Bacillus subtilis MTCC 441 assessed as zone of inhibition at 5 mg/ml after 24 hrs by agar well diffusion method; details: MTCC 441, 24 h, read-out: IZ
Aspergillus niger [7] = assay: Antifungal activity against Aspergillus niger MTCC 282 assessed as zone of inhibition at 5 mg/ml after 24 hrs by agar well diffusion method; details: MTCC 282, 24 h, read-out: IZ
Rattus norvegicus [8] = assay: Antiinflammatory activity in rat assessed as inhibition of carrageenan-induced paw edema administered 30 mins prior to carrageenan challenge measured after 2 hrs relative to control
Staphylococcus aureus [9] = assay: Antimicrobial activity against Staphylococcus aureus MTCC 3160 assessed as zone of inhibition at 5 mg/ml after 24 hrs by agar well diffusion method; details: MTCC 3160, 24 h, read-out: IZ
Rattus norvegicus [10] = assay: Antiinflammatory activity in rat assessed as inhibition of carrageenan-induced paw edema administered 30 mins prior to carrageenan challenge measured after 3 hrs relative to control
Rattus norvegicus [11] = assay: Antiinflammatory activity in rat assessed as inhibition of carrageenan-induced paw edema administered 30 mins prior to carrageenan challenge measured after 1 hr relative to control
Candida albicans [12] = assay: Antifungal activity against Candida albicans MTCC 461 assessed as zone of inhibition at 5 mg/ml after 24 hrs by agar well diffusion method; details: MTCC 461, 24 h, read-out: IZ
Klebsiella pneumoniae [13] = assay: Antimicrobial activity against Klebsiella pneumoniae MTCC 3384 assessed as zone of inhibition at 5 mg/ml after 24 hrs by agar well diffusion method; details: MTCC 3384, 24 h, read-out: IZ
Aspergillus niger [14] = assay: Antifungal activity against Aspergillus niger MTCC 282 after 48 hrs by broth dilution method; details: MTCC 282, 48 h
Candida tropicalis [15] = assay: Antifungal activity against Candida tropicalis MTCC 183 assessed as zone of inhibition at 5 mg/ml after 24 hrs by agar well diffusion method; details: MTCC 183, 24 h, read-out: IZ
Staphylococcus aureus [16] = assay: Antimicrobial activity against Staphylococcus aureus MTCC 3160 after 24 hrs by broth dilution method; details: MTCC 3160, 24 h
Penicillium chrysogenum [17] = assay: Antifungal activity against Penicillium notatum assessed as zone of inhibition at 5 mg/ml after 24 hrs by agar well diffusion method; details: read-out: IZ
Escherichia coli [18] = assay: Antimicrobial activity against Escherichia coli MTCC 4351 after 24 hrs by broth dilution method; details: MTCC 4351, 24 h
Escherichia coli [19] = assay: Antimicrobial activity against Escherichia coli MTCC 4351 assessed as zone of inhibition at 5 mg/ml after 24 hrs by agar well diffusion method; details: MTCC 4351, 24 h, read-out: IZ

Row | Compound | MIC (Penicillium chrysogenum [1]) | MIC (Bacillus subtilis [2]) | MIC (Candida tropicalis [3]) | MIC (Klebsiella pneumoniae [4]) | MIC (Candida albicans [5]) | zone of inhibition at 5000 µg/mL (Bacillus subtilis [6]) | zone of inhibition at 5000 µg/mL (Aspergillus niger [7]) | inhibition (INH) (Rattus norvegicus [8]) | zone of inhibition at 5000 µg/mL (Staphylococcus aureus [9]) | inhibition (INH) (Rattus norvegicus [10]) | inhibition (INH) (Rattus norvegicus [11]) | zone of inhibition at 5000 µg/mL (Candida albicans [12]) | zone of inhibition at 5000 µg/mL (Klebsiella pneumoniae [13]) | MIC (Aspergillus niger [14]) | zone of inhibition at 5000 µg/mL (Candida tropicalis [15]) | MIC (Staphylococcus aureus [16]) | zone of inhibition at 5000 µg/mL (Penicillium chrysogenum [17]) | MIC (Escherichia coli [18]) | zone of inhibition at 5000 µg/mL (Escherichia coli [19])
1 | CCCn1c(-c2ccc(Cl)cc2Cl)nc2cc(C(=O)N/N=C/c3ccccc3[N+](=O)[O-])ccc21 | 50 µg/mL (≈ 101 µM) | 25 µg/mL (≈ 50.4 µM) | 25 µg/mL (≈ 50.4 µM) | 25 µg/mL (≈ 50.4 µM) | 50 µg/mL (≈ 101 µM) | 16 mm | 18 mm | 51.74% | 15 mm | 47.44% | 46.66% | 14 mm | 17 mm | 12.5 µg/mL (≈ 25.2 µM) | 16 mm | 25 µg/mL (≈ 50.4 µM) | 12 mm | 12.5 µg/mL (≈ 25.2 µM) | 17 mm
2 | CCCn1c(-c2ccc(Cl)cc2Cl)nc2cc(C(=O)N/N=C/c3cccc([N+](=O)[O-])c3)ccc21 | 12.5 µg/mL (≈ 25.2 µM) | 12.5 µg/mL (≈ 25.2 µM) | 3.12 µg/mL (≈ 6.29 µM) | 12.5 µg/mL (≈ 25.2 µM) | 6.25 µg/mL (≈ 12.6 µM) | 17 mm | 20 mm | 53.14% | 17 mm | 42.91% | 52.22% | 17 mm | 18 mm | 6.25 µg/mL (≈ 12.6 µM) | 20 mm | 12.5 µg/mL (≈ 25.2 µM) | 15 mm | 25 µg/mL (≈ 50.4 µM) | 15 mm
3 | CCCn1c(-c2ccc(Cl)cc2Cl)nc2cc(C(=O)N/N=C/c3ccc([N+](=O)[O-])cc3)ccc21 | 25 µg/mL (≈ 50.4 µM) | 25 µg/mL (≈ 50.4 µM) | 12.5 µg/mL (≈ 25.2 µM) | 25 µg/mL (≈ 50.4 µM) | 50 µg/mL (≈ 101 µM) | 16 mm | 20 mm | 50.2% | 17 mm | 46.27% | 50% | 13 mm | 17 mm | 6.25 µg/mL (≈ 12.6 µM) | 16 mm | 12.5 µg/mL (≈ 25.2 µM) | 13 mm | 12.5 µg/mL (≈ 25.2 µM) | 18 mm
4 | CCCn1c(-c2ccc(Cl)cc2Cl)nc2cc(C(=O)N/N=C/c3cccc(Cl)c3Cl)ccc21 | 50 µg/mL (≈ 96.1 µM) | 25 µg/mL (≈ 48.1 µM) | 25 µg/mL (≈ 48.1 µM) | 12.5 µg/mL (≈ 24 µM) | 12.5 µg/mL (≈ 24 µM) | 15 mm | 20 mm | 49.65% | 17 mm | 45.1% | 53.14% | 16 mm | 18 mm | 6.25 µg/mL (≈ 12 µM) | 16 mm | 12.5 µg/mL (≈ 24 µM) | 12 mm | 12.5 µg/mL (≈ 24 µM) | 18 mm
5 | CCCn1c(-c2ccc(Cl)cc2Cl)nc2cc(C(=O)N/N=C/c3ccc(Cl)cc3Cl)ccc21 | 50 µg/mL (≈ 96.1 µM) | 25 µg/mL (≈ 48.1 µM) | 12.5 µg/mL (≈ 24 µM) | 50 µg/mL (≈ 96.1 µM) | 25 µg/mL (≈ 48.1 µM) | 15 mm | 18 mm | 63.63% | 15 mm | 38.39% | 51.29% | 15 mm | 15 mm | 25 µg/mL (≈ 48.1 µM) | 16 mm | 25 µg/mL (≈ 48.1 µM) | 12 mm | 50 µg/mL (≈ 96.1 µM) | 12 mm
6 | CCCn1c(-c2ccc(Cl)cc2Cl)nc2cc(C(=O)N/N=C/c3cc(C)c(O)c(C)c3)ccc21 | 25 µg/mL (≈ 50.5 µM) | 12.5 µg/mL (≈ 25.2 µM) | 12.5 µg/mL (≈ 25.2 µM) | 25 µg/mL (≈ 50.5 µM) | 50 µg/mL (≈ 101 µM) | 17 mm | 20 mm | 50.48% | 17 mm | 43.06% | 51.11% | 14 mm | 17 mm | 6.25 µg/mL (≈ 12.6 µM) | 16 mm | 12.5 µg/mL (≈ 25.2 µM) | 15 mm | 6.25 µg/mL (≈ 12.6 µM) | 20 mm
7 | CCCn1c(-c2ccc(Cl)cc2Cl)nc2cc(C(=O)N/N=C/c3ccccc3)ccc21 | 25 µg/mL (≈ 55.4 µM) | 25 µg/mL (≈ 55.4 µM) | 50 µg/mL (≈ 111 µM) | 50 µg/mL (≈ 111 µM) | 50 µg/mL (≈ 111 µM) | 15 mm | 19 mm | 54.12% | 12 mm | 47.15% | 56.85% | 12 mm | 12 mm | 25 µg/mL (≈ 55.4 µM) | 12 mm | 50 µg/mL (≈ 111 µM) | 16 mm | 12.5 µg/mL (≈ 27.7 µM) | 18 mm
8 | CC1(C)S[C@@H]2[C@H](NC(=O)[C@H](N)c3ccccc3)C(=O)N2[C@H]1C(=O)O [AMPICILLIN] |  | 1.56 µg/mL (≈ 4.46 µM) |  | 3.12 µg/mL (≈ 8.93 µM) |  | 24 mm |  |  | 26 mm |  |  |  | 23 mm |  |  | 1.56 µg/mL (≈ 4.46 µM) |  | 1.56 µg/mL (≈ 4.46 µM) | 25 mm
9 | O=C([O-])Cc1ccccc1Nc1c(Cl)cccc1Cl.[Na+] [DICLOFENAC SODIUM] |  |  |  |  |  |  |  | 73.28% |  | 74.74% | 62.96% |  |  |  |  |  |  |  | 
10 | OC(Cn1cncn1)(Cn1cncn1)c1ccc(F)cc1F [FLUCONAZOLE] | 3.12 µg/mL (≈ 10.2 µM) |  | 1.56 µg/mL (≈ 5.09 µM) |  | 1.56 µg/mL (≈ 5.09 µM) |  | 24 mm |  |  |  |  | 23 mm |  | 1.56 µg/mL (≈ 5.09 µM) | 24 mm |  | 22 mm |  | 
11 | COc1ccc2c(c1)c(CC(=O)O)c(C)n2C(=O)c1ccc(Cl)cc1 [INDOMETHACIN] |  |  |  |  |  |  |  | 68.11% |  | 69.34% | 55.55% |  |  |  |  |  |  |  | 
